Assay results from PubChem BioAssay AID860 (Vanderbilt High Throughput Screening Facility, 2007).

Each molecule was assayed against Muscarinic acetylcholine receptor M4 (Rattus norvegicus) (UniProt P08485) (assay: antagonism at rat M4 muscarinic receptor, dose response, counter-screen for M1 allosteric modulator project, cell-based, antagonist mode (AID 860)). Details: rat M4-expressing cells, calcium fluorescence, antagonist mode at EC80 agonist.
Sequence of Muscarinic acetylcholine receptor M4 (Rattus norvegicus) (P08485 whole entry, looked up): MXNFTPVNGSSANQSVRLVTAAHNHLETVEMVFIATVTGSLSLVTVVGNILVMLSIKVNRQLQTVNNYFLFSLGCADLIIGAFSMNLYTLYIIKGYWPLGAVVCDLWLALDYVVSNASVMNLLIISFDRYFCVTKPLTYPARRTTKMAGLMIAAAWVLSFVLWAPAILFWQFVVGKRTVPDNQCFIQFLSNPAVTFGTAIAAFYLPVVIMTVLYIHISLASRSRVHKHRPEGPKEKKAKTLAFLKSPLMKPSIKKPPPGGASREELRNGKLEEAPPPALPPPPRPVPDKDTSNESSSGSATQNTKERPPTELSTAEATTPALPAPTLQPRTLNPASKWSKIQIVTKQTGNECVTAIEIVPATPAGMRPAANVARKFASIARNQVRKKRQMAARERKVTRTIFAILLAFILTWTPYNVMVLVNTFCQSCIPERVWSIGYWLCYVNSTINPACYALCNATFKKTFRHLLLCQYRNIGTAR
For `COc1ccc(N2C(=O)CSC23C(=O)N2CCCc4cccc3c42)cc1` (centres undefined), the IC50 was 451 nM. Molecule `O=C(OCCN1CCCC1)C1(c2ccccc2)CCCC1` has an IC50 of 325 nM. `OC(CCN1CCCCC1)(c1ccccc1)c1ccccc1` gave an IC50 of 111 nM. For `CCN(CC)CCOC(=O)C(c1ccccc1)c1ccccc1`, the IC50 was 747 nM. `O=C(NC1CCN(Cc2ccccc2)CC1)C1COc2ccccc2O1` (centres undefined) was tested, and the IC50 was 411 nM. With `CCC(C)N(CCNC(=O)CC1Oc2ccccc2NC1=O)C1CCCCC1` (centres undefined) the IC50 was 847 nM. Molecule `O=C(CN1CCCC(O)C1)N1c2ccccc2Sc2ccc(C(F)(F)F)cc21` (centres undefined) has an IC50 of 979 nM. `CN1CCC(=C2c3ccccc3C=Cc3ccccc32)CC1` was tested, and the IC50 was 136 nM. In the case of `CC1CCN(Cc2ccc(NC(=O)CC3Oc4ccccc4NC3=O)cc2)CC1` (centres undefined), the IC50 is reported as 33.1 nM. Molecule `CNCCCC1c2ccccc2C=Cc2ccccc21` has an IC50 of 925 nM. Work on `Cc1ccc(C(=O)C2CCN(CC(=O)NC3CCCCC3)CC2)cc1` yielded an IC50 of 72.7 nM. In the case of `Cc1ccc2c(c1)NC(=O)C(CC(=O)Nc1ccc(CN3CCC(C)CC3)cc1)O2` (centres undefined), the IC50 is reported as 71.6 nM. `OC(CCN1CCCC1)(c1ccccc1)C1CCCCC1` (centres undefined) was tested, and the IC50 was 34.3 nM. `CCN(CC)c1ccc(C2C(C(=O)OCCOC(C)C)=C(C)NC3=C2C(=O)CCC3)cc1` (centres undefined) showed an IC50 of 822 nM. Work on `CN(C)CCOC(=O)C(c1ccccc1)C1(O)CCCC1` (centres undefined) yielded an IC50 of 11.7 nM. `Cc1nc2c(o1)CCc1ccccc1C2N1CCN(C)CC1` (centres undefined) gave an IC50 of 38.3 nM. For `CCN1C(=O)/C(=C\N2CCCCCC2)SC1=S`, the IC50 was 759 nM. Work on `CCCC(CCC)C(=O)OC1C[C@H]2CC[C@@H](C1)[N+]2(C)C` (some centres undefined) yielded an IC50 of 29.4 nM. Molecule `O=C(CC(c1ccccc1O)N1CCCCC1)N1CCCCC1` (centres undefined) has an IC50 of 752 nM. With `CN(C)CCCOC(=O)C1c2ccccc2Oc2ccccc21` the IC50 was 215 nM. With `CN(C)CCC=C1c2ccccc2CCc2ccccc21` the IC50 was 1150 nM. `COC(=O)c1ccc(CSc2nc(C)nc3c2c(=O)n(C)c(=O)n3C)o1` gave an IC50 of 1300 nM. In the case of `CCC(C)N(CCNC(=O)CC1Oc2ccc(C)cc2NC1=O)C1CCCCC1` (centres undefined), the IC50 is reported as 577 nM. With `CCN(CCCCOC(=O)c1ccc(OC)c(OC)c1)C(C)Cc1ccc(OC)cc1` (centres undefined) the IC50 was 742 nM.
